The numbers were not newly measured in patent US20040137049A1, “Amphotericin b aqueous composition” (priority 2001, published 2004), which cites them from elsewhere.

The structures appear in SMILES notation. ≈ marks a conversion by molar mass, not a printed value.

The conditions of this data set: in methanol.

`C[C@@H]1[C@H](O)[C@@H](C)/C=C/C=C/C=C/C=C/C=C/C=C/C=C/[C@H](O[C@@H]2O[C@H](C)[C@@H](O)[C@H](N)[C@@H]2O)C[C@@H]2O[C@](O)(C[C@@H](O)C[C@@H](O)[C@H](O)CC[C@@H](O)C[C@@H](O)CC(=O)O[C@H]1C)C[C@H](O)[C@H]2C(=O)O` [Amphotericin B]: the Solubility is 100 µg/mL (≈ 108 µM).

For orientation: Solubility means the dissolved amount per volume that the medium holds.
